# Test results as given in patent US12648913B2, “Polymeric nanocarriers and methods of use thereof” (Vanderbilt University, priority 2019, dated 2026).
# Tested on: MDA-MB-231 cells
# Assay: MTS proliferation assay on rigid or compliant substrates
# Assay type: cell-based, human
# From the text: This motivated the hypothesis that blocking Gli-activity in metastatic breast tumors could obstruct their potential to establish in bone and adopt a bone-destructive phenotype. […] It is important to note the large variability in tumor burden inherent to the intracardiac model as evidenced by the large standard error. Even with this variability in consideration, there is significant tumor burden in the 10% Aln-GANT58 treated mice despite maintenance of high bone area (FIG. 18C). Based on the present inventors' previous studies reporting that both rigid mineralized bone matrix and TGF-β drive Gli2 expression in bone-metastatic cancer cell lines, it was hypothesized that GANT58-BTNP treatment may have a spatially heterogeneous effect on tumor cells that mirrors the spatial variation in Gli2 expression. Therefore, the effect of GANT58-BTNP treatment on tumor cell proliferation was measured by measuring Ki67 via IHC (FIG. 14F). […]
# Proliferation Assay. […] Cell proliferation was determined by MTS assay using the CellTiter 96 Aqueous Non-Radioactive Cell Proliferation Assay kit (Promega) per the manufacturer's instructions. Absorbance values were measured at OD 490 nm on a plate reader and normalized to no cell controls in the respective GelMA coated and uncoated wells.
structure (smiles),measurement,setting,value
c1cc(-c2sc(-c3ccncc3)c(-c3ccncc3)c2-c2ccncc2)ccn1 [GANT58],proliferation of cells on compliant substrates,"40 μM GANT58, GelMA gels",not on compliant substrates
same,proliferation of cells on rigid substrates,"40 μM GANT58, tissue culture plastic",significantly reduced
